Several values for one entry are separate records, joined by “and”; a condition that tells them apart may be missing. Equal entries are not always repeated.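 Grown in 96-well plates, cells were treated for 48 hours with each compound at five concentrations. Insufficient inhibition: endpoint recorded as highest concentration tested. Abbreviation: GI50, concentration required for 50% inhibition of growth. TGI denotes the concentration required for complete inhibition of growth.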
How the values were obtained:
Assay in all cases: inhibition of tumour cell growth, NCI panel, 48 h
[1] = test system: TK-10 renal
[2] = test system: MDA-MB-435
[3] = test system: A549 NSCLC
[4] = test system: HS 578T breast
[5] = test system: OVCAR-4 ovarian
[6] = test system: M14 melanoma
[7] = test system: NCI-H522 lung
[8] = test system: UO-31 renal
[9] = test system: MCF7 breast
[10] = test system: HCT-15 colon

## OCc1ccc(N(Cc2ccc(F)cc2)C2CCC2)cc1Cl
[1]
  GI50: 0.0551 µM
  TGI: 0.278 µM
[2]
  GI50: 16.2 µM
  TGI: 31.1 µM
[3]
  GI50: 2.04 µM
  TGI: 17.9 µM
[4]
  GI50: 19 µM
  TGI: 45.4 µM
[5]
  GI50: 0.207 µM
  TGI: 2.69 µM
[6]
  GI50: 15.8 µM
  TGI: 32 µM
[7]
  GI50: 13 µM
  TGI: 28.6 µM
[8]
  GI50: 1.88 µM
  TGI: 15.2 µM
[9]
  GI50: 0.178 µM
  TGI: 10.9 µM
[10]
  GI50: 10.9 µM
  TGI: 25.7 µM

## O=C(Nc1cccc(NS(=O)(=O)c2ccc(F)cc2)c1)c1ccc(-c2ccccc2)cc1
[1]
  GI50: 3.77 µM
  TGI: 36.5 µM
[2]
  GI50: 3.26 µM
  TGI: 13.7 µM
[3]
  GI50: 3.34 µM
  TGI: > 100 µM
[4]
  GI50: 4.68 µM
  TGI: 52.5 µM
[5]
  GI50: 3.72 µM
  TGI: > 100 µM
[6]
  GI50: 3.63 µM
  TGI: 17.1 µM
[7]
  GI50: 2.5 µM
  TGI: 13 µM
[8]
  GI50: 2.56 µM
  TGI: 16.9 µM
[9]
  GI50: 2.71 µM
  TGI: 11.2 µM
[10]
  GI50: 2.86 µM
  TGI: 18.3 µM

## O=C1c2cccnc2-c2nc(-c3ccccn3)cc3c2c1nc1ccccc13
[1]
  GI50: 0.296 µM
  TGI: 1.11 µM
[2]
  GI50: 0.728 µM
  TGI: 2.09 µM
[3]
  GI50: 1.38 µM
  TGI: 3.39 µM
[4]
  GI50: 0.705 µM
  TGI: 4.65 µM
[5]
  GI50: 0.0699 µM
  TGI: 0.26 µM
[6]
  GI50: 0.228 µM
  TGI: 1.36 µM
[7]
  GI50: 0.141 µM
  TGI: 0.32 µM
[8]
  GI50: 0.0539 µM
  TGI: 0.219 µM
[9]
  GI50: 0.463 µM
  TGI: 2.22 µM
[10]
  GI50: < 0.0209 µM
  TGI: 0.259 µM

## O=c1oc2ccccc2cc1-c1ccc([N+](=O)[O-])cc1
[1]
  TGI: > 100 µM
[2]
  TGI: > 100 µM
[3]
  TGI: > 100 µM
[4]
  TGI: > 100 µM
[5]
  TGI: > 100 µM
[6]
  TGI: > 100 µM
[7]
  TGI: > 100 µM
[8]
  TGI: > 100 µM
[9]
  TGI: > 100 µM
[10]
  TGI: > 100 µM

## Cc1ccc2c(/C=C/C(=O)c3cc(CN4CCOCC4)c(O)c4nc(C)ccc34)cc(CN3CCOCC3)c(O)c2n1
[1]
  GI50: 1.13 µM
  TGI: 3.77 µM
[2]
  GI50: 0.669 µM
  TGI: 2.3 µM
[3]
  GI50: 0.38 µM
  TGI: 15.1 µM
[4]
  GI50: 1.28 µM
  TGI: > 100 µM
[5]
  GI50: 0.637 µM
  TGI: 2.43 µM
[6]
  GI50: 0.564 µM
  TGI: 11.7 µM
[7]
  GI50: 0.332 µM
  TGI: 2 µM
[8]
  GI50: 0.371 µM
  TGI: 1.6 µM
[9]
  GI50: 0.356 µM
  TGI: 2.74 µM
[10]
  GI50: 0.223 µM
  TGI: 3.33 µM

## O=C(O)CSCC(=O)c1ccccc1
[1]
  TGI: > 100 µM
[2]
  TGI: > 100 µM
[3]
  TGI: > 100 µM
[4]
  TGI: > 100 µM
[5]
  TGI: > 100 µM
[6]
  TGI: > 100 µM
[7]
  TGI: > 100 µM
[8]
  TGI: > 100 µM
[9]
  TGI: > 100 µM
[10]
  TGI: > 100 µM

## O=C(Oc1cccc(Nc2ncnc3ccccc23)c1)c1ccccc1Cl
[1]
  GI50: 8.72 µM
  TGI: 37.8 µM
[2]
  GI50: 41.6 µM
  TGI: > 100 µM
[3]
  GI50: 25.9 µM
  TGI: > 100 µM
[4]
  GI50: 19.1 µM
  TGI: 48.1 µM
[5]
  GI50: 48.9 µM
  TGI: > 100 µM
[6]
  GI50: 39.7 µM
  TGI: > 100 µM
[7]
  GI50: 7.23 µM
  TGI: 26.8 µM
[8]
  GI50: 36.4 µM
  TGI: > 100 µM
[9]
  GI50: 11.7 µM
  TGI: 37.1 µM
[10]
  GI50: 18.9 µM
  TGI: 46.6 µM

## CC(C)(C)[Si](C)(C)OC1[C@@H](O[Si](C)(C)C(C)(C)C)[C@@H](CNC(=O)NC(=O)NC(=O)CI)O[C@H]1n1cnc2c(NC(=O)Nc3ccccc3)ncnc21 (stereo not given in full)
[1]
  GI50: 0.21 µM
  TGI: 1.05 µM
[2]
  GI50: 7.83 µM
  TGI: 20.8 µM
[3]
  GI50: 1.57 µM
  TGI: 11.9 µM
[4]
  GI50: 2.5 µM
  TGI: 17.8 µM
[5]
  GI50: 0.665 µM
  TGI: 2.36 µM
[6]
  GI50: 6.1 µM
  TGI: 14.6 µM
[7]
  GI50: 0.0262 µM
  TGI: 0.0522 µM
[8]
  GI50: 0.0888 µM
  TGI: 0.178 µM
[9]
  GI50: 6.1 µM
  TGI: 17.4 µM
[10]
  GI50: 9.81 µM
  TGI: 31.8 µM

## COc1cc2c3c(n(CCCO)c(=O)c2cc1OC)-c1cc2c(cc1C3=O)OCO2
[1]
  GI50: 34.7 µM
  TGI: > 100 µM
[2]
  GI50: 31.4 µM
  TGI: > 100 µM
[3]
  GI50: 16.9 µM
  TGI: > 100 µM
[4]
  GI50: 52 µM
  TGI: > 100 µM
[5]
  GI50: > 87.3 µM
  TGI: > 100 µM
[6]
  GI50: 3.68 µM
  TGI: 32.8 µM
[7]
  GI50: > 40.8 µM
  TGI: > 100 µM
[8]
  GI50: > 21.2 µM
  TGI: > 100 µM
[9]
  GI50: 2.94 µM
  TGI: > 100 µM
[10]
  GI50: 33.4 µM
  TGI: > 100 µM

## CC1/C=C/C=C/CC/C=C/C=C/C=C/C=C/C(OC2OC(C)C(O)C(N)C2O)CC2OC(CC(O)C(O)CCC(O)CC(O)CC(O)CC(=O)OC(C)C(C)C1O)CC(O)C2C(=O)O (stereo not given)
[1]
  GI50: 28.3 µg/mL
  TGI: 32.5 µM and 53.6 µg/mL
[2]
  GI50: 28.1 µg/mL
  TGI: 31.9 µM and 50.1 µg/mL
[3]
  GI50: 24.5 µg/mL
  TGI: 33 µM and 46.3 µg/mL
[4]
  GI50: 32.5 µg/mL
  TGI: 55.1 µM and 66.9 µg/mL
[5]
  GI50: 23.9 µg/mL
  TGI: 29.4 µM and 52.5 µg/mL
[6]
  GI50: 27.8 µg/mL
  TGI: 34.9 µM and 48.8 µg/mL
[7]
  GI50: 29.8 µg/mL
  TGI: 34.3 µM and 53.7 µg/mL
[8]
  GI50: 20 µg/mL
  TGI: 35.8 µM and 40.6 µg/mL
[9]
  GI50: 128 µg/mL
  TGI: 36.4 µM and 150 µg/mL
[10]
  GI50: 43.8 µg/mL
  TGI: 82.2 µM and 150 µg/mL
